PMC6756013, “B591, a novel specific pan-PI3K inhibitor, preferentially targets cancer stem cells” (Oncogene, 2019)
pIC50: −log10 of the molar value.

What was measured:
Assay in all cases: Biochemical kinase profiling (Life Technologies)
AKT1 (PKB alpha) = AKT1 (PKB alpha) (Homo sapiens, UniProt P31749)
Description: (§1) Purified PI3K Class I Lipid Kinase, including p110α/p85α, p110β/p85α, p110γ, and p110δ/p85α (Promega, Madison, WI, USA), was respectively incubated with B591 for 30 min at room temperature. The activity of PI3K was evaluated using a PI3-Kinase Activity ELISA kit (K-1000s, Echelon, Salt Lake City, UT, USA) according to the manufacture’s instructions. The assay is a competitive ELISA in which the signal is inversely proportional to the amount of PI(3,4,5)P3 produced. After the PI3-Kinase reactions are complete, reaction products are first mixed and incubated with a PI(3,4,5)P3 detector protein, then added to the PI(3,4,5)P3-coated microplate for competitive binding. A peroxidase-linked secondary detector and colorimetric detection is used to detect PI(3,4,5)P3 detector binding to the plate. The colorimetric signal is inversely proportional to the amount of PI(3,4,5)P3 produced by PI3-Kinase. The absorbance was measured at 450 nm with a Multilabel Reader (PerkinElmer, Waltham, MA, USA). ATP competition assays were executed with varying concentrations of ATP, and five concentrations of ATP were 5 μM, 25 μM, 50 μM, 100 μM, and 200 μM respectively. The IC50 values for inhibition of PI3Kβ by B591 were determined at indicated concentrations of ATP. In addition, B591 selectivity was tested against 39 kinases at Life Technologies.

AKT2 (PKB beta) = AKT2 (PKB beta) (Homo sapiens, UniProt P31751)
Description: as §1

AKT3 (PKB gamma) = AKT3 (PKB gamma) (Homo sapiens, UniProt Q9Y243)
Description: as §1

AMPK A1/B1/G1 = AMPK A1/B1/G1 (Homo sapiens, UniProt P54619+Q13131+Q9Y478)
Description: as §1

AMPK A2/B1/G1 = AMPK A2/B1/G1 (Homo sapiens, UniProt P54619+P54646+Q9Y478)
Description: as §1

DNA-PK = DNA-PK (Homo sapiens, UniProt P78527)
Description: as §1

EGFR (ErbB1) = molecular target: T1, EGFR (ErbB1) (Homo sapiens, UniProt P00533)
T1 construct: purchased Life Technologies
Description: as §1

EPHA1 = molecular target: T2, EPHA1 (Homo sapiens, UniProt P21709)
T2 construct: purchased Life Technologies
Description: as §1

EPHA8 = molecular target: T3, EPHA8 (Homo sapiens, UniProt P29322)
T3 construct: purchased Life Technologies
Description: as §1

EPHB1 = molecular target: T4, EPHB1 (Homo sapiens, UniProt P54762)
T4 construct: purchased Life Technologies
Description: as §1

ERBB2 (HER2) = molecular target: T5, ERBB2 (HER2) (Homo sapiens, UniProt P04626)
T5 construct: purchased Life Technologies
Description: as §1

FGFR2 = molecular target: T6, FGFR2 (Homo sapiens, UniProt P21802)
T6 construct: purchased Life Technologies
Description: as §1

FGFR3 = molecular target: T7, FGFR3 (Homo sapiens, UniProt P22607)
T7 construct: purchased Life Technologies
Description: as §1

FGFR4 = molecular target: T8, FGFR4 (Homo sapiens, UniProt P22455)
T8 construct: purchased Life Technologies
Description: as §1

FLT1 (VEGFR1) = molecular target: T9, FLT1 (VEGFR1) (Homo sapiens, UniProt P17948)
T9 construct: purchased Life Technologies
Description: as §1

FRAP1 (mTOR) = FRAP1 (mTOR) (Homo sapiens, UniProt P42345)
Description: as §1

FYN = FYN (Homo sapiens, UniProt P06241)
Description: as §1

GSK3A (GSK3 alpha) = GSK3A (GSK3 alpha) (Homo sapiens, UniProt P49840)
Description: as §1

GSK3B (GSK3 beta) = GSK3B (GSK3 beta) (Homo sapiens, UniProt P49841)
Description: as §1

IGF1R = IGF1R (Homo sapiens, UniProt P08069)
Description: as §1

JAK1 = JAK1 (Homo sapiens, UniProt P23458)
Description: as §1

LYN A = LYN A (Homo sapiens, UniProt P07948)
Description: as §1

LYN B = LYN B (Homo sapiens, UniProt P07948)
Description: as §1

MET (cMet) = molecular target: T10, MET (cMet) (Homo sapiens, UniProt P08581)
T10 construct: purchased Life Technologies
Description: as §1

PDGFRA (PDGFR alpha) = molecular target: T11, PDGFRA (PDGFR alpha) (Homo sapiens, UniProt P16234)
T11 construct: purchased Life Technologies
Description: as §1

PDGFRB (PDGFR beta) = molecular target: T12, PDGFRB (PDGFR beta) (Homo sapiens, UniProt P09619)
T12 construct: purchased Life Technologies
Description: as §1

PDK1 = PDK1 (Homo sapiens, UniProt O15530)
Description: as §1

PIK3C2A (PI3K-C2 alpha) = PIK3C2A (PI3K-C2 alpha) (Homo sapiens, UniProt O00443)
Description: as §1

PIK3C2B (PI3K-C2 beta) = PIK3C2B (PI3K-C2 beta) (Homo sapiens, UniProt O00750)
Description: as §1

PIK3C3 (hVPS34) = PIK3C3 (hVPS34) (Homo sapiens, UniProt Q8NEB9)
Description: as §1

PRKCZ (PKC zeta) = molecular target: T13, PRKCZ (PKC zeta) (Homo sapiens, UniProt Q05513)
T13 construct: purchased Life Technologies
Description: as §1

PTK2 (FAK) = PTK2 (FAK) (Homo sapiens, UniProt Q05397)
Description: as §1

RPS6KB1 (p70S6K) = molecular target: T14, RPS6KB1 (p70S6K) (Homo sapiens, UniProt P23443)
T14 construct: purchased Life Technologies
Description: as §1

SRC = molecular target: T15, SRC (Homo sapiens, UniProt P12931)
T15 construct: purchased Life Technologies
Description: as §1

SYK = SYK (Homo sapiens, UniProt P43405)
Description: as §1

T14 sequence (P23443 whole entry): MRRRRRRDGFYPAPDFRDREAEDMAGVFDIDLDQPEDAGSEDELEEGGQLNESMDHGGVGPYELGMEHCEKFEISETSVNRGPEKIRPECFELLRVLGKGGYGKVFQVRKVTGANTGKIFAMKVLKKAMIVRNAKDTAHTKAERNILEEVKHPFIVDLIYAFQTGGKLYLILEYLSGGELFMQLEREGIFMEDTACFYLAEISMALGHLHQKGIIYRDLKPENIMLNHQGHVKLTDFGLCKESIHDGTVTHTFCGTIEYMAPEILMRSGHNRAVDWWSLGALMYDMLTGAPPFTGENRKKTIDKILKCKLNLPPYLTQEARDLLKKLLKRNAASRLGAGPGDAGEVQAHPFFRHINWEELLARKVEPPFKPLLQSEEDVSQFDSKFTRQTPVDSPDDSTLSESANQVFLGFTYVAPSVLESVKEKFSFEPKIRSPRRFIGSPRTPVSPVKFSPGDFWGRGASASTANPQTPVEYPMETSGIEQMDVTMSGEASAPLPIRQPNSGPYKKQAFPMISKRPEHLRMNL
Chain of AKT2 (PKB beta) (P31751 whole entry): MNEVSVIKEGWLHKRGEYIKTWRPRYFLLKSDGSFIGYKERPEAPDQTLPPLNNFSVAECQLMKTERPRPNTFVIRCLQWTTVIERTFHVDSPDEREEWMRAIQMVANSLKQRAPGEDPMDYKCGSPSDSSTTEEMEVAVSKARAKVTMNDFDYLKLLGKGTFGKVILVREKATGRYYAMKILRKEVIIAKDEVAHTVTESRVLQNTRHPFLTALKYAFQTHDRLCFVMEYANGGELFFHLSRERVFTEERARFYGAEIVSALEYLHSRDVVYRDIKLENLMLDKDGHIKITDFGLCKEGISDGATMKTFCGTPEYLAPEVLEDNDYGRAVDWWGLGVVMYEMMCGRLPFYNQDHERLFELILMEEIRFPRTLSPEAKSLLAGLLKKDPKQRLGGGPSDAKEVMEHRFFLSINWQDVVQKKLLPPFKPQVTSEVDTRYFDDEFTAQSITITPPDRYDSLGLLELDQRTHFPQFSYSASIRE
Chain of AMPK A1/B1/G1 (Q13131 whole entry): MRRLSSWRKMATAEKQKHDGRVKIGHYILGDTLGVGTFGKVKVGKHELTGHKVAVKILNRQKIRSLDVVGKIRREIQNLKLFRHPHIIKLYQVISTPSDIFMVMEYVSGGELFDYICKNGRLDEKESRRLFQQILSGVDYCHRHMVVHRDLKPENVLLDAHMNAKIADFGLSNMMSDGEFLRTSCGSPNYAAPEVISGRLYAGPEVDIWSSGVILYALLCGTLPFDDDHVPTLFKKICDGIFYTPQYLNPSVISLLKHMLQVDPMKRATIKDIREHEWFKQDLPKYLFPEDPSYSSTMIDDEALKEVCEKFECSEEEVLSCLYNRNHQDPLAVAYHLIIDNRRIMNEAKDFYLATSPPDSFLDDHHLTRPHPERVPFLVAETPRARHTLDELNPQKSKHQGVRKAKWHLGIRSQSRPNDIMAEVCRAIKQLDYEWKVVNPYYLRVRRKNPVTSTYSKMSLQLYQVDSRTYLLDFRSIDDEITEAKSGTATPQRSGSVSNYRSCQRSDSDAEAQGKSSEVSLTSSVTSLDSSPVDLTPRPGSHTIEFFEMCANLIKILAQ
Chain of AMPK A1/B1/G1 (Q9Y478 whole entry partner): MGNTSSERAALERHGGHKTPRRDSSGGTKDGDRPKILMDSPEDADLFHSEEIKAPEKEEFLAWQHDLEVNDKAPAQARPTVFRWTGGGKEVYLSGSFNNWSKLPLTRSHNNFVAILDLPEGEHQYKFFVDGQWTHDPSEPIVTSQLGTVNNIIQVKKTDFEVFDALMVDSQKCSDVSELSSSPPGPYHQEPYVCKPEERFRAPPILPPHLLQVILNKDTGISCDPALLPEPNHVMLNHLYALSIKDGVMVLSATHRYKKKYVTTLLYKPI
Chain of AMPK A1/B1/G1 (P54619 whole entry partner): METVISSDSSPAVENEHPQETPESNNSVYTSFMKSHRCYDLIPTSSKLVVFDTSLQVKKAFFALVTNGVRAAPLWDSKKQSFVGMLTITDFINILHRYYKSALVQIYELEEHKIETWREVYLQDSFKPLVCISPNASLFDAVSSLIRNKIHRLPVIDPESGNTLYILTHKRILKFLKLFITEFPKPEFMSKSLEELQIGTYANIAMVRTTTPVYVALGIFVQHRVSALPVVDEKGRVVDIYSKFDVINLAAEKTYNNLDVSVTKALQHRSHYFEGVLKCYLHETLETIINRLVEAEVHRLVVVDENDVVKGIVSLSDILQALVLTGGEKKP
T1 sequence (P00533 25-1210): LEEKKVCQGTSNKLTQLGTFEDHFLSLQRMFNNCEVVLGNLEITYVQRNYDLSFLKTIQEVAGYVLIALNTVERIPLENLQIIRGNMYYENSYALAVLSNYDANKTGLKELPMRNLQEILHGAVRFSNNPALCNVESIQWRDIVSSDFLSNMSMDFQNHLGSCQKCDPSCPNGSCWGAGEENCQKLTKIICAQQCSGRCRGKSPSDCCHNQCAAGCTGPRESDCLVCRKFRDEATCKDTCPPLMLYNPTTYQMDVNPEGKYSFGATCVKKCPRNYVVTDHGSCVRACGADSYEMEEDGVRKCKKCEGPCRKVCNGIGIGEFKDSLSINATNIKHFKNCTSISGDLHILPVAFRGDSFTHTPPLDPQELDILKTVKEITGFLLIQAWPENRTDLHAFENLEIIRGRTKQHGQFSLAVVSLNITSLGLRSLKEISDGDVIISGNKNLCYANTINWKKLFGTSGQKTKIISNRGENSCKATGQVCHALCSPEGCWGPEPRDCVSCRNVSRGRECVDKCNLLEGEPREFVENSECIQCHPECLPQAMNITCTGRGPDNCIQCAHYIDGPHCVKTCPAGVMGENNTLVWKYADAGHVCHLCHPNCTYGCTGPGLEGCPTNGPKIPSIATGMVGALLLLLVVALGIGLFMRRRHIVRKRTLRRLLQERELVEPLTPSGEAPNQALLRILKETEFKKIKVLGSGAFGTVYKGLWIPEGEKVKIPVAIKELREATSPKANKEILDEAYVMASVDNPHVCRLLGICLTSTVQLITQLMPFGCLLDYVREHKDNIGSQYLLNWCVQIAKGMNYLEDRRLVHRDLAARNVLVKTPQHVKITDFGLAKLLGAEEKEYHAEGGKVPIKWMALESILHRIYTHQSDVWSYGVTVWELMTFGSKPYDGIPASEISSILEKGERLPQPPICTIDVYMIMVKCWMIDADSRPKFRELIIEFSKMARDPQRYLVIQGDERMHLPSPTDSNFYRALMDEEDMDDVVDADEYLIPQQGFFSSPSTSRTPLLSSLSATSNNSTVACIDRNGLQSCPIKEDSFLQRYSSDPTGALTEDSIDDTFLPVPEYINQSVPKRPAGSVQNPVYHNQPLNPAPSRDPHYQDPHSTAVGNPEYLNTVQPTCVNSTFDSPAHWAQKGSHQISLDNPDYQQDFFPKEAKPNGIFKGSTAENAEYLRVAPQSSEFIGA
T3 sequence (P29322 28-1005): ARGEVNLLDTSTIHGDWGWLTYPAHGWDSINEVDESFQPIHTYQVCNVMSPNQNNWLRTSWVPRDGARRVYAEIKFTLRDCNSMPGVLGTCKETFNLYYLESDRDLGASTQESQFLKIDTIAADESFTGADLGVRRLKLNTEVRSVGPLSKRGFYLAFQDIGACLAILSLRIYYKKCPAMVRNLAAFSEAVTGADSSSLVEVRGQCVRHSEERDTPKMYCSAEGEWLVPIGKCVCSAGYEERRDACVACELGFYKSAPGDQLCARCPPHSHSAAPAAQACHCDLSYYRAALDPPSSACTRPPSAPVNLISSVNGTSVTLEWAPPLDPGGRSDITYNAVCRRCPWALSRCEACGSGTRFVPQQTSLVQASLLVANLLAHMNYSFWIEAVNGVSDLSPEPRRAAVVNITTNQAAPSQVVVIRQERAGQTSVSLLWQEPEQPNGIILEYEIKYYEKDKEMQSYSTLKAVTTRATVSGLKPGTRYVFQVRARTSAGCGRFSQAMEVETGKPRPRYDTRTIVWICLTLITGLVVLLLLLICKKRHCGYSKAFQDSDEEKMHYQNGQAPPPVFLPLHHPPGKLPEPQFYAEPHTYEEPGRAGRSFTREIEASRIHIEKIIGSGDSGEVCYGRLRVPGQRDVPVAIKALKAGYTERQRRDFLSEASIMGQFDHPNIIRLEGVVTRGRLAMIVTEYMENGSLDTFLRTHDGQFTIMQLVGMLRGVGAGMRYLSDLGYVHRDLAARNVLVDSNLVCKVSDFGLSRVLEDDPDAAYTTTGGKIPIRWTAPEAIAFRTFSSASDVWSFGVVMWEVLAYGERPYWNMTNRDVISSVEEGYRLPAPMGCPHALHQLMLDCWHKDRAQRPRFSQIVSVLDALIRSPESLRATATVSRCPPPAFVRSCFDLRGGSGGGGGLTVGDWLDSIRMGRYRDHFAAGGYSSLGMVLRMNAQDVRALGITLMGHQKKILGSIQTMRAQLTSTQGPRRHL
Chain of LYN A (P07948 whole entry): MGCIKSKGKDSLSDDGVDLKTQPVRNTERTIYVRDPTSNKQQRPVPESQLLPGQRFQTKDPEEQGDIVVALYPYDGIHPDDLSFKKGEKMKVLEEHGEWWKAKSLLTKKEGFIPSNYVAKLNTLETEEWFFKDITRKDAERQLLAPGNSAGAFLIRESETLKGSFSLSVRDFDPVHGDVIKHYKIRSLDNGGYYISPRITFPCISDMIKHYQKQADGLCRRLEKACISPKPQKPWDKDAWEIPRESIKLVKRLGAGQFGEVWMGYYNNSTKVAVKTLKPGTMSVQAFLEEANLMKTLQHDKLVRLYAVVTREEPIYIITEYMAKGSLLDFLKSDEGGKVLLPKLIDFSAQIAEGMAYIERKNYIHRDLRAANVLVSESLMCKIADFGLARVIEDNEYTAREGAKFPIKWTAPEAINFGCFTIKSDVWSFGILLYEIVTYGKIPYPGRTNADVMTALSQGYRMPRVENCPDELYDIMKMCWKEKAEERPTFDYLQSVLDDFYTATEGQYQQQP

- pIC50 (AKT1 (PKB alpha)): < 3.30
- pIC50 (AKT2 (PKB beta)): < 3.30
- pIC50 (AKT3 (PKB gamma)): < 3.30
- pIC50 (AMPK A1/B1/G1): < 3.30
- pIC50 (AMPK A2/B1/G1): < 3.30
- pIC50 (DNA-PK): 3.35
- pIC50 (EGFR (ErbB1)): < 3.30
- pIC50 (EPHA1): < 3.30
- pIC50 (EPHA8): < 3.30
- pIC50 (EPHB1): < 3.30
- pIC50 (ERBB2 (HER2)): < 3.30
- pIC50 (FGFR2): < 3.30
- pIC50 (FGFR3): < 3.30
- pIC50 (FGFR4): < 3.30
- pIC50 (FLT1 (VEGFR1)): < 3.30
- pIC50 (FRAP1 (mTOR)): < 3.30
- pIC50 (FYN): < 3.30
- pIC50 (GSK3A (GSK3 alpha)): < 3.30
- pIC50 (GSK3B (GSK3 beta)): < 3.30
- pIC50 (IGF1R): < 3.30
- pIC50 (JAK1): < 3.30
- pIC50 (LYN A): < 3.30
- pIC50 (LYN B): < 3.30
- pIC50 (MET (cMet)): < 3.30
- pIC50 (PDGFRA (PDGFR alpha)): < 3.30
- pIC50 (PDGFRB (PDGFR beta)): < 3.30
- pIC50 (PDK1): < 3.30
- pIC50 (PIK3C2A (PI3K-C2 alpha)): 3.75
- pIC50 (PIK3C2B (PI3K-C2 beta)): 4.04
- pIC50 (PIK3C3 (hVPS34)): 3.99
- pIC50 (PRKCZ (PKC zeta)): < 3.30
- pIC50 (PTK2 (FAK)): < 3.30
- pIC50 (RPS6KB1 (p70S6K)): < 3.30
- pIC50 (SRC): < 3.30
- pIC50 (SYK): < 3.30
SMILES: Cc1cc2c(cc1C)[n+](Cc1ccccc1Br)cn2Cc1ccc2c(c1)CCO2.[Br-] [B591, 3-(2-bromobenzyl)-1-((2,3-dihydrobenzofuran-5-yl)methyl) -5,6-dimethyl-1H-benzo[d]imidazol-3-ium bromide]
